US20150232900A1, “PAPER FOLDING METHOD AND DEVICE FOR MANUFACTURING FILTER CARTRIDGES” (MYKO TECH PRIVATE LIMITED, priority 2012, published 2015)

Columns and labels:
Type in all cases: cell-based
Human Adenovirus 5 = assay: Plaque forming unit (PFU) inhibition assay, Human Adenovirus 5 in A549 cell line; details: Human Adenovirus 5, A549 cells, positive control, tested 0.33-100 μM; not at less
Description: EPS from two thraustochytrids, designated MT-5 and MT-6 were tested for inhibition of Adenovirus. A stock solution of 20 mg/ml of the EPS was prepared by solubilizing in 10% DMSO for injection into the cell lines infected by the virus. Various dilutions of the stock EPS were prepared in the tissue culture medium, Dulbecco ? Modified Eagle medium with 2% fetal bovine serum and antibiotics. The dilutions were: (1) 100 μg/ml; (2) 33 μg/ml; (3) 10 μg/ml; (4) 3.3 μg/ml; (5) 1.0 μg/ml; (6) 0.33 μg/ml. A plaque forming unit (PFU) inhibition assay in 6-well plates in vitro was carried out. A known concentration of cells from A549 cell line was used to seed 6-well or 12-well plates for 24 hours. Each of the 6 different concentrations of the EPS was then added to duplicate wells and incubated for 1 hour and then approximately 50-100 plaque forming units of Human Adenovirus 5 in 10 ? were added to each well. Virus was allowed to absorb to the cells for 2 hours. After the incubation the virus was removed and agarose solution with EPS at each different was added to the appropriate infected well. Plates were incubated in a 37° C. CO2 incubator for 5 days. The drug Cidofovir was kept as a positive control, at concentrations of 100, 33, 10, 3.3, 1.0 and 0.33 μM concentrations. […] Plaques were counted and numbers recorded. […]

[1] = tested on: Retrovirus XMRV (Xenotropic Murine Leukemia Virus); assay: Focus forming unit (FFU) inhibition assay, Retrovirus XMRV in PG4 cell line; details: PG4 cells, positive control, tested 0.33-100 μM
Description: EPS from two thraustochytrids designated MT-5 and MT-6 were tested for inhibition of retrovirus A stock solution of 20 mg/ml of the EPS was prepared by solubilizing in 10% DMSO for injection into the cell lines infected by the virus. Various dilutions of the stock EPS were prepared in the tissue culture medium, Dulbecco ? Modified Eagle medium with 2% fetal bovine serum and antibiotics. The dilutions were: (1) 100 ? /ml; (2) 33 ? /ml; 10 ? /ml; (4) 3.3 μg/ml; (5) 1.0 μg/ml; (6) 0.33 μg/ml. A focus forming unit (FFU) inhibition assay in 6-well plates in vitro was carried out. A known concentration of cells from PG4 cell line was used to seed 6-well or 12-well plates for 24 hours. Each of the 6 different concentrations of the EPS was then added to duplicate wells and incubated for 1 hour and then approximately 50-100 focus forming units of the Retrovirus XMRV (Xenotropic Murine Leukemia Virus) in 10 ? were added to each well. Virus was allowed to absorb to the cells for 2 hours. After the incubation the virus was removed and agarose solution with EPS at each different was added to the appropriate infected well Plates were incubated in a 37° C. CO2 incubator for 5 days. The drug Tenofovir was kept as a positive control, at concentrations of 100, 33, 10, 3.3, 1.0 and 0.33 μM concentrations. At the end of incubation, cultures were fixed and stained with crystal violet to visualize the foci. […]

[2] = tested on: Human Cytomegalovirus AD-169; assay: Plaque forming unit (PFU) inhibition assay, Human Cytomegalovirus AD-169 in MRC5 cell line; details: Human Cytomegalovirus AD-169, MRC5 cells, positive control, tested 0.33-100 μM
Description: EPS from the thraustochytrid designated MT-5 were tested for inhibition of Cytomegalovirus. A stock solution of 20 mg/ml of the EPS was prepared by solubilizing in 10% DMSO for injection into the cell lines infected by the virus.
Various dilutions of the stock EPS were prepared in the tissue culture medium, Dulbecco ? Modified Eagle medium with 2% fetal bovine serum and antibiotics. The dilutions were: (1) 100 ? /ml; (2) 33 ? /ml; (3) 10 ? /ml; (4) 3.3 μg/ml; (5) 1.0 ? /ml; (6) 0.33 μg/ml. A plaque forming unit (PFU) inhibition assay in 6-well plates in vitro was carried out. A known concentration of cells from MRC5 cell line was used to seed 6-well or 12-well plates for 24 hours. Each of the 6 different concentrations of the EPS was then added to duplicate wells and incubated for 1 hour and then approximately 50-100 plaque forming units of the Human Cytomegalovirus AD-169 in 10 ? were added to each well. Virus was allowed to absorb to the cells for 2 hours. After the incubation the virus was removed and agarose solution with EPS at each different was added to the appropriate infected well. Plates were incubated in a 37° C. CO2 incubator for 5 days. The drug Acyclovir was kept as a positive control, at concentrations of 100, 33, 10, 3.3, 1.0 and 0.33 μM concentrations. […] Plaques were counted and numbers recorded. […]

For `Nc1ccn(C[C@@H](CO)OCP(=O)(O)O)c(=O)n1` [Cidofovir], the “concentration that completely inhibited plaque formation” value (Human Adenovirus 5) was 100 µM.

With `C[C@H](Cn1cnc2c(N)ncnc21)OCP(=O)(O)O` [Tenofovir] the “concentration above which the drug was effective (viral foci)” value [1] was greater than 10.0 µM and the “concentration that completely inhibited focal formation” value [1] was 100 µM.

For `Nc1nc2c(ncn2COCCO)c(=O)[nH]1` [Acyclovir], the “effective concentration (not effective at any concentration tested, up to the maximum)” value [2] was greater than 100.0 µM.
